Experimental data: patent publication US7371773B2, “Breast cancer resistance protein (BCRP) inhibitor” (Kabushiki Kaisha Yakult Honsha, priority 2003, dated 2008)
In brackets after ≈: the same amount, converted by molar mass.

System: A549/SN-38-4 cell line
Assay: Overcoming anticancer drug resistance of A549/SN-38-4 cell line
Type: cell-based, human
Settings: Homo sapiens, A549; SN-38 resistance, concentration for 50% reduction of relative resistance value, 48 hours; read-out: Resistance overcoming effect EC50
Protocol: The effect of a diphenylacrylonitrile derivative on BCRP-mediated anticancer drug resistance was studied by use of the human lung cancer A549/SN-38-4 cell line, which had acquired anticancer drug resistance through BCRP expression. The human lung cancer A549 cell line or the A549/SN-38-4 cell line was suspended in 10% FBS/Ham's F-12, and the resultant suspension was inoculated into a 96-well microplate, followed by culturing at 5% CO2 and 37° C. overnight (2×10^3 cells/50 μL/well). Thereafter, a 10% FBS/Ham's F-12 solution (25 μL) containing a diphenylacrylonitrile derivative and SN-38 or mitoxantrone was added to each of the wells, followed by culturing at 5% CO2 and 37° C. for 48 hours. After completion of culturing, the number of viable cells was counted by use of TetraColor ONE according to the attached instruction manual. […] The greater the relative resistance value, the higher the level of acquired resistance.

SMILES	EC50 [µg/mL]
COc1ccc(/C(C#N)=C/c2ccc(O)cc2)cc1OC.[Na] [Compound 17, (Z)-2-(3,4-dimethoxy-phenyl)-3-(4-hydroxy-phenyl)-acrylonitrile sodium salt]	0.018
COc1ccc(/C(C#N)=C/c2ccc(F)cc2)cc1OC [Compound 18, (Z)-2-(3,4-dimethoxy-phenyl)-3-(4-fluoro-phenyl)-acrylonitrile]	0.0063 (≈ 0.0222 µM)
COc1ccc(/C(C#N)=C/c2ccc([N+](=O)[O-])cc2)cc1OC [Compound 19, (Z)-2-(3,4-dimethoxy-phenyl)-3-(4-nitro-phenyl)-acrylonitrile]	0.019 (≈ 0.0612 µM)
COc1ccc(/C(C#N)=C/c2ccccc2F)cc1OC [Compound 20, (Z)-2-(3,4-dimethoxy-phenyl)-3-(2-fluoro-phenyl)-acrylonitrile]	0.053 (≈ 0.187 µM)
COc1ccc(/C(C#N)=C/c2ccc(C#N)cc2)cc1OC [Compound 21, 4-[(Z)-2-cyano-2-(3,4-dimethoxy-phenyl)-vinyl]-benzonitrile]	0.022 (≈ 0.0758 µM)
COc1ccc(/C(C#N)=C/c2cccc(F)c2F)cc1OC [Compound 22, (Z)-3-(2,3-difluoro-phenyl)-2-(3,4-dimethoxy-phenyl)-acrylonitrile]	0.022 (≈ 0.073 µM)
COc1ccc(/C(C#N)=C/c2ccc(F)cc2F)cc1OC [Compound 23, (Z)-3-(2,4-difluoro-phenyl)-2-(3,4-dimethoxy-phenyl)-acrylonitrile]	0.048 (≈ 0.159 µM)
COc1ccc(/C(C#N)=C/c2cc(F)ccc2F)cc1OC [Compound 24, (Z)-3-(2,5-difluoro-phenyl)-2-(3,4-dimethoxy-phenyl)-acrylonitrile]	0.0073 (≈ 0.0242 µM)
COc1ccc(/C(C#N)=C/c2ccc(F)c(F)c2)cc1OC [Compound 25, (Z)-3-(3,4-difluoro-phenyl)-2-(3,4-dimethoxy-phenyl)-acrylonitrile]	< 0.005
COc1ccc(/C(C#N)=C/c2cc(F)cc(F)c2)cc1OC [Compound 26, (Z)-3-(3,5-difluoro-phenyl)-2-(3,4-dimethoxy-phenyl)-acrylonitrile]	< 0.005
COc1ccc(/C(C#N)=C/c2ccc(F)c(F)c2F)cc1OC [Compound 27, (Z)-2-(3,4-dimethoxy-phenyl)-3-(2,3,4-trifluoro-phenyl)-acrylonitrile]	0.047 (≈ 0.147 µM)
COc1ccc(/C(C#N)=C/c2cc(F)cc(F)c2F)cc1OC [Compound 28, (Z)-2-(3,4-dimethoxy-phenyl)-3-(2,3,5-trifluoro-phenyl)-acrylonitrile]	0.011 (≈ 0.0345 µM)
COc1ccc(/C(C#N)=C/c2c(F)ccc(F)c2F)cc1OC [Compound 29, (Z)-2-(3,4-dimethoxy-phenyl)-3-(2,3,6-trifluoro-phenyl)-acrylonitrile]	0.1 (≈ 0.313 µM)
COc1ccc(/C(C#N)=C/c2cc(F)c(F)cc2F)cc1OC [Compound 30, (Z)-2-(3,4-dimethoxy-phenyl)-3-(2,4,5-trifluoro-phenyl)-acrylonitrile]	0.041 (≈ 0.128 µM)
COc1ccc(/C(C#N)=C/c2cc(F)c(F)c(F)c2)cc1OC [Compound 31, (Z)-2-(3,4-dimethoxy-phenyl)-3-(3,4,5-trifluoro-phenyl)-acrylonitrile]	0.015 (≈ 0.047 µM)
COc1ccc(/C(C#N)=C/c2c(F)cccc2F)cc1OC [Compound 32, (Z)-3-(2,6-difluoro-phenyl)-2-(3,4-dimethoxy-phenyl)-acrylonitrile]	0.15 (≈ 0.498 µM)
COc1ccc(/C(C#N)=C/c2cccc([N+](=O)[O-])c2)cc1OC [Compound 33, (Z)-2-(3,4-dimethoxy-phenyl)-3-(3-nitro-phenyl)-acrylonitrile]	0.019 (≈ 0.0612 µM)
COc1ccc(/C(C#N)=C/c2ccc(N)cc2)cc1OC [Compound 34, (Z)-3-(4-amino-phenyl)-2-(3,4-dimethoxy-phenyl)-acrylonitrile]	0.079 (≈ 0.282 µM)
CCOC(=O)COc1ccc(/C=C(\C#N)c2ccc(OC)c(OC)c2)cc1 [Compound 35, ethyl [4-[(Z)-2-cyano-2-(3,4-dimethoxy-phenyl)-vinyl]-phenoxy]-acetate]	0.37 (≈ 1.01 µM)
COC(=O)c1ccc(/C=C(\C#N)c2ccc(OC)c(OC)c2)cc1 [Compound 36, methyl 4-[(Z)-2-cyano-2-(3,4-dimethoxy-phenyl)-vinyl]-benzoate]	0.2 (≈ 0.619 µM)
COc1ccc(/C(C#N)=C/c2ccccc2[N+](=O)[O-])cc1OC [Compound 37, (Z)-2-(3,4-dimethoxy-phenyl)-3-(2-nitro-phenyl)-acrylonitrile]	0.085 (≈ 0.274 µM)
COc1ccc(/C(C#N)=C/c2ccc(Cl)c([N+](=O)[O-])c2)cc1OC [Compound 38, (Z)-3-(4-chloro-3-nitro-phenyl)-2-(3,4-dimethoxy-phenyl)-acrylonitrile]	0.037 (≈ 0.107 µM)

SMILES	EC50 [µg/mL]
COc1ccc(/C(C#N)=C/c2cc([N+](=O)[O-])ccc2F)cc1OC [Compound 39, (Z)-2-(3,4-dimethoxy-phenyl)-3-(2-fluoro-5-nitro-phenyl)-acrylonitrile]	0.027 (≈ 0.0822 µM)
CCOc1ccc(/C=C(\C#N)c2ccc(OC)c(OC)c2)cc1[N+](=O)[O-] [Compound 40, (Z)-2-(3,4-dimethoxy-phenyl)-3-(4-ethoxy-3-nitro-phenyl)-acrylonitrile]	0.15 (≈ 0.423 µM)
COC(=O)CCC(=O)Oc1ccc(/C=C(\C#N)c2ccc(OC)c(OC)c2)cc1 [Compound 41, 4-[(Z)-2-cyano-2-(3,4-dimethoxy-phenyl)-vinyl]-phenyl methyl succinate]	0.041
CCOC(=O)CCC(=O)Oc1ccc(/C=C(\C#N)c2ccc(OC)c(OC)c2)cc1 [Compound 42, 4-[(Z)-2-cyano-2-(3,4-dimethoxy-phenyl)-vinyl]-phenyl ethyl succinate]	0.038
COc1ccc(/C(C#N)=C/c2ccc(OC(=O)CCC(=O)Oc3ccc(/C=C(\C#N)c4ccc(OC)c(OC)c4)cc3)cc2)cc1OC [Compound 43, bis-{4-[(Z)-2-cyano-2-(3,4-dimethoxy-phenyl)-vinyl]-phenyl} succinate]	0.12
COc1ccc(/C(C#N)=C/c2ccc(O)c([N+](=O)[O-])c2)cc1OC [Compound 45, (Z)-2-(3,4-dimethoxy-phenyl)-3-(4-hydroxy-3-nitro-phenyl)-acrylonitrile]	0.13 (≈ 0.398 µM)
COc1ccc(/C(C#N)=C/c2cc3c(cc2[N+](=O)[O-])OCO3)cc1OC [Compound 46, (Z)-2-(3,4-dimethoxy-phenyl)-3-(6-nitro-benzo[1,3]dioxol-5-yl)-acrylonitrile]	0.58 (≈ 1.64 µM)
COCCOCOc1ccc(/C(C#N)=C/c2ccc(OC)c(OC)c2)cc1 [Compound 47, (Z)-3-(3,4-dimethoxy-phenyl)-2-[4-(2-methoxy-ethoxymethoxy)-phenyl]-acrylonitrile]	0.053 (≈ 0.143 µM)
COc1ccc(/C=C(\C#N)c2ccc(O)cc2)cc1OC [Compound 48, (Z)-3-(3,4-dimethoxy-phenyl)-2-(4-hydroxy-phenyl)-acrylonitrile]	0.013 (≈ 0.0462 µM)
N#C/C(=C\c1ccc(O)cc1)c1cc(C(F)(F)F)cc(C(F)(F)F)c1 [Compound 49, (Z)-2-(3,5-bis-trifluoromethyl-phenyl)-3-(4-hydroxy-phenyl)-acrylonitrile]	0.2 (≈ 0.56 µM)
COc1ccc(/C(C#N)=C\c2ccc(O)cc2)cc1OC [Compound 50, (E)-2-(3,4-dimethoxy-phenyl)-3-(4-hydroxy-phenyl)-acrylonitrile]	0.094 (≈ 0.334 µM)
CCOc1ccc([N+](=O)[O-])cc1/C=C(\C#N)c1ccc(OC)c(OC)c1 [Compound 52, (Z)-2-(3,4-dimethoxy-phenyl)-3-(2-ethoxy-5-nitro-phenyl)-acrylonitrile]	0.024 (≈ 0.0677 µM)
COc1ccc(/C(C#N)=C/c2ccc([N+](=O)[O-])c(O)c2)cc1OC [Compound 53, (Z)-2-(3,4-dimethoxy-phenyl)-3-(3-hydroxy-4-nitro-phenyl)-acrylonitrile]	0.048 (≈ 0.147 µM)
COc1ccc(/C(C#N)=C/c2cccc(F)c2O)cc1OC [Compound 55, (Z)-2-(3,4-dimethoxy-phenyl)-3-(3-fluoro-2-hydroxy-phenyl)-acrylonitrile]	0.015 (≈ 0.0501 µM)
COc1ccc(/C=C(\C#N)c2ccc(OC)c(OC)c2)cc1OC [Compound 56, (Z)-2,3-bis-(3,4-dimethoxy-phenyl)-acrylonitrile]	0.016 (≈ 0.0492 µM)
COCCOCOc1ccc(/C=C(\C#N)c2ccc(OC)c(OC)c2)cc1F [Compound 58, (Z)-2-(3,4-dimethoxy-phenyl)-3-[3-fluoro-4-(2-methoxy-ethoxymethoxy)-phenyl]-acrylonitrile]	0.033 (≈ 0.0852 µM)
COc1ccc(/C(C#N)=C/c2ccc(O)c(F)c2)cc1OC [Compound 59, (Z)-2-(3,4-dimethoxy-phenyl)-3-(3-fluoro-4-hydroxy-phenyl)-acrylonitrile]	0.043 (≈ 0.144 µM)
COc1ccc(/C=C(\C#N)c2ccc(OC(C)=O)cc2)cc1OC [Compound 61, 4-[(Z)-1-cyano-2-(3,4-dimethoxy-phenyl)-vinyl]phenyl acetate]	0.024
COc1ccc(/C(C#N)=C/c2ccc(C=O)cc2)cc1OC [Compound 62, (Z)-2-(3,4-dimethoxy-phenyl)-3-(4-formyl-phenyl)-acrylonitrile]	0.11 (≈ 0.375 µM)
CCOc1cc(/C(C#N)=C/c2ccc(OC)c(OC)c2)ccc1OC(C)=O [Compound 63, 4-[(Z)-1-cyano-2-(3,4-dimethoxy-phenyl)-vinyl]-2-ethoxy-phenyl acetate]	0.024
COc1ccc(/C=C(\C#N)c2ccc(OC(C)=O)c(F)c2)cc1OC [Compound 64, 4-[(Z)-1-cyano-2-(3,4-dimethoxy-phenyl)-vinyl]-2-fluoro-phenyl acetate]	0.01
COc1cc(/C(C#N)=C/c2ccc(OC(C)=O)cc2)cc(OC)c1OC [Compound 65, 4-[(Z)-2-cyano-2-(3,4,5-trimethoxy-phenyl)-vinyl]-phenyl acetate]	0.2
